From US20250163057A1, “DCN-1 MODULATING COMPOUNDS AND METHODS OF USE THEREOF” (Cellarity, Inc., priority 2023, published 2025)

target: DCN1 protein (Homo sapiens (Human), UniProt Q96GG9); experiment: Intact Protein MS Analysis with the RapidFire-TOF System (covalent adduct formation); assay type: binding; conditions: MS Emax; 400 nM DCN1, 3 hours at room temperature
Procedure: An MS assay was performed to evaluate the ability of the compounds to covalently modify DCN-1.
DCN1 protein, His-TEV-DCN1, were expressed in E. Coli. The His-tagged protein was first purified with an Ni-NTA column. The His-tag was cleaved using His-tag TEV protease and the His-tags were removed using a second Ni-NTA column. Protein purity was verified with SDS-PAGE and intact MS. DCN1 was dissolved in a buffer containing 25 mM Tris-HCl, 200 mM NaCl, and 1 mM DTT at 400 nM. 11 concentrations of compounds were added to the DCN1 solution and incubated at room temperature for 3 hours, unless otherwise specified. The reaction plates were quenched by adding 0.2% formic acid. […] The cartridge was re-equilibrated with loading buffer for 1 second before collection of the next sample. The Q-TOF was operated in TOF-only positive ionization mode set to the following parameters: Gas Temp=350 C, Drying Gas=7 l/min, Nebulizer=50 psi, Sheath Gas Temp=400 C, Sheath Gas Flow=12 l/min, Vcap=4000 V, Nozzle Voltage=1000 V, Fragmentor=125 V, Skimmer=65 V and Oct 1 RF Vpp=750V. Raw MS data files were deconvoluted and analyzed using the Agilent MassHunter Bioconfirm software package to identify both parent protein and expected compound adduct mass signatures.

Sequence of DCN1 protein (Q96GG9 whole entry): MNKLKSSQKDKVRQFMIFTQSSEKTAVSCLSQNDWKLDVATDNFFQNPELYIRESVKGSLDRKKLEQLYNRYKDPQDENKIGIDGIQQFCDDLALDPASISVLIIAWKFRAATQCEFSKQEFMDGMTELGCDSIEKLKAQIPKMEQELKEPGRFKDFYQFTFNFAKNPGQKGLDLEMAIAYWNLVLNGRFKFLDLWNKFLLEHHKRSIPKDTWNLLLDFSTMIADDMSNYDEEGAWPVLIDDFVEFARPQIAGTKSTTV

| SMILES | % Adduct Formation |
| --- | --- |
| C/C=C/C(=O)N[C@H](C)c1nn(-c2ccccc2)c2c1[C@H](c1ccc(F)cc1)[C@H](NC(=O)c1cccc(C(F)(F)F)c1)C(=O)N2CC (mixture of isomers) [Compound I-238] | + (MS Emax % adduct formation greater than or equal to 0.0 and less than or equal to 30.0) |
| CCN1C(=O)[C@@H](NC(=O)c2cccc(C(F)(F)F)c2)[C@@H](c2ccc(F)cc2)c2c(CNC(=O)C(Cl)Cl)nn(-c3ccccc3)c21 (racemic) [Compound I-169] | + (MS Emax % adduct formation greater than or equal to 0.0 and less than or equal to 30.0) |
| CCN1C(=O)[C@@H](NC(=O)c2cccc(C(F)(F)F)c2)[C@@H](c2ccc(F)cc2)c2c(CN3C(=O)C=CC3=O)nn(-c3ccccc3)c21 (racemic) [Compound I-170] | + (MS Emax % adduct formation greater than or equal to 0.0 and less than or equal to 30.0) |
| CCN1C(=O)[C@@H](NC(=O)c2cccc(C(F)(F)F)c2)[C@@H](c2ccc(F)cc2)c2c(NC(=O)COc3c(F)c(F)cc(F)c3F)nn(-c3ccccc3)c21 (racemic) [Compound I-176] | + (MS Emax % adduct formation greater than or equal to 0.0 and less than or equal to 30.0) |
| CCN1C(=O)[C@@H](NC(=O)c2cccc(C(F)(F)F)c2)[C@@H](c2ccc(F)cc2)c2c(CNC(=O)COc3c(F)c(F)cc(F)c3F)nn(-c3ccccc3)c21 (racemic) [Compound I-182] | + (MS Emax % adduct formation greater than or equal to 0.0 and less than or equal to 30.0) |
| CCN1C(=O)[C@@H](NC(=O)c2cccc(C(F)(F)F)c2)[C@@H](c2ccc(F)cc2)c2c(CNC(=O)/C=C/CN3CCOCC3)nn(-c3ccccc3)c21 (racemic) [Compound I-183] | + (MS Emax % adduct formation greater than or equal to 0.0 and less than or equal to 30.0) |
| C=CS(=O)(=O)Nc1nn(-c2ccccc2)c2c1[C@H](c1ccc(F)cc1)[C@H](NC(=O)c1cccc(C(F)(F)F)c1)C(=O)N2CC (racemic) [Compound I-187] | +++ (MS Emax % adduct formation greater than 80.0 and less than or equal to 100.0) |
| C=C(C(=O)N(C)C)c1nn(-c2ccccc2)c2c1[C@H](c1ccc(F)cc1)[C@H](NC(=O)c1cccc(C(F)(F)F)c1)C(=O)N2CC (racemic) [Compound I-188, rac-N-((4R,5R)-3-(3-(dimethylamino)-3-oxoprop-1-en-2-yl)-7-ethyl-4-(4-fluorophenyl)-6-oxo-1-phenyl-4,5,6,7-tetrahydro-1H-pyrazolo[3,4-b]pyridine-5-yl)-3-(trifluoromethyl)benzamide] | + (MS Emax % adduct formation greater than or equal to 0.0 and less than or equal to 30.0) |
| CCN1C(=O)[C@@H](NC(=O)c2cccc(C(F)(F)F)c2)[C@@H](c2ccc(F)cc2)c2c(C=O)nn(-c3ccccc3)c21 (racemic) [Compound I-189, rac-N-((4R,5R)-7-ethyl-4-(4-fluorophenyl)-3-formyl-6-oxo-1-phenyl-4,5,6,7-tetrahydro-1H-pyrazolo[3,4-b]pyridine-5-yl)-3-(trifluoromethyl)benzamide] | + (MS Emax % adduct formation greater than or equal to 0.0 and less than or equal to 30.0) |
| CCN1C(=O)[C@@H](NC(=O)c2cccc(C(F)(F)F)c2)[C@@H](c2ccc(F)cc2)c2c(CN3CC=CC3=O)nn(-c3ccccc3)c21 (racemic) [Compound I-193] | + (MS Emax % adduct formation greater than or equal to 0.0 and less than or equal to 30.0) |
| CCN1C(=O)[C@@H](NC(=O)c2cccc(C(F)(F)F)c2)[C@@H](c2ccc(F)cc2)c2c(N3C=CC3=O)nn(-c3ccccc3)c21 (racemic) [Compound I-194, N-((4S,5S)-7-ethyl-4-(4-fluorophenyl)-6-oxo-3-(2-oxoazet-1(2H)-yl)-1-phenyl-4,5,6,7-tetrahydro-1H-pyrazolo[3,4-b]pyridine-5-yl)-3-(trifluoromethyl)benzamide] | + (MS Emax % adduct formation greater than or equal to 0.0 and less than or equal to 30.0) |
| C=C(C(=O)OCC)c1nn(-c2ccccc2)c2c1[C@H](c1ccc(F)cc1)[C@@H](NC(=O)c1cccc(C(F)(F)F)c1)C(=O)N2CC (racemic) [Compound I-195, rac-ethyl 2-((4R,5S)-7-ethyl-4-(4-fluorophenyl)-6-oxo-1-phenyl-5-(3-(trifluoromethyl)benzamido)-4,5,6,7-tetrahydro-1H-pyrazolo[3,4-b]pyridine-3-yl)acrylate] | + (MS Emax % adduct formation greater than or equal to 0.0 and less than or equal to 30.0) |
| CCN1C(=O)[C@@H](NC(=O)c2cccc(C(F)(F)F)c2)[C@@H](c2ccc(F)cc2)c2c(CNS(=O)(=O)CCl)nn(-c3ccccc3)c21 (racemic) [Compound I-198] | + (MS Emax % adduct formation greater than or equal to 0.0 and less than or equal to 30.0) |
| C#Cc1nn(-c2ccccc2)c2c1[C@H](c1ccc(F)cc1)[C@H](NC(=O)c1cccc(C(F)(F)F)c1)C(=O)N2CC (racemic) [Compound I-199, N-((4S,5S)-7-ethyl-3-ethynyl-4-(4-fluorophenyl)-6-oxo-1-phenyl-4,5,6,7-tetrahydro-1H-pyrazolo[3,4-b]pyridine-5-yl)-3-(trifluoromethyl)benzamide] | + (MS Emax % adduct formation greater than or equal to 0.0 and less than or equal to 30.0) |
| CCN1C(=O)[C@@H](NC(=O)c2cccc(C(F)(F)F)c2)[C@@H](c2ccc(F)cc2)c2c(CN(C)C(=O)C3=CCC3)nn(-c3ccccc3)c21 (racemic) [Compound I-200] | + (MS Emax % adduct formation greater than or equal to 0.0 and less than or equal to 30.0) |
| C=C(C(=O)O)c1nn(-c2ccccc2)c2c1[C@H](c1ccc(F)cc1)[C@@H](NC(=O)c1cccc(C(F)(F)F)c1)C(=O)N2CC (racemic) [Compound I-208, rac-2-((4R,5S)-7-ethyl-4-(4-fluorophenyl)-6-oxo-1-phenyl-5-(3-(trifluoromethyl)benzamido)-4,5,6,7-tetrahydro-1H-pyrazolo[3,4-b]pyridine-3-yl)acrylic acid] | + (MS Emax % adduct formation greater than or equal to 0.0 and less than or equal to 30.0) |
| CCN1C(=O)[C@@H](NC(=O)c2cccc(C(F)(F)F)c2)[C@@H](c2ccc(F)cc2)c2c([C@H](C)NS(=O)(=O)CCl)nn(-c3ccccc3)c21 (racemic) [Compound I-214] | + (MS Emax % adduct formation greater than or equal to 0.0 and less than or equal to 30.0) |
| CCN1C(=O)[C@@H](NC(=O)c2cccc(C(F)(F)F)c2)[C@@H](c2ccc(F)cc2)c2c(C(CCl)C(=O)N(C)C)nn(-c3ccccc3)c21 (mixture of isomers) [Compound I-216, rac-N-((4R,5R)-3-(3-chloro-1-(dimethylamino)-1-oxopropan-2-yl)-7-ethyl-4-(4-fluorophenyl)-6-oxo-1-phenyl-4,5,6,7-tetrahydro-1H-pyrazolo[3,4-b]pyridine-5-yl)-3-(trifluoromethyl)benzamide] | + (MS Emax % adduct formation greater than or equal to 0.0 and less than or equal to 30.0) |
| CCN1C(=O)[C@@H](NC(=O)c2cccc(C(F)(F)F)c2)[C@@H](c2ccc(F)cc2)c2c(CNC(=O)/C(C#N)=C/C3CC3)nn(-c3ccccc3)c21 (racemic) [Compound I-217] | + (MS Emax % adduct formation greater than or equal to 0.0 and less than or equal to 30.0) |
| CCN1C(=O)[C@@H](NC(=O)c2cccc(C(F)(F)F)c2)[C@@H](c2ccc(F)cc2)c2c(CN(C)C(=O)/C=C/C(F)(F)F)nn(-c3ccccc3)c21 (racemic) [Compound I-219] | + (MS Emax % adduct formation greater than or equal to 0.0 and less than or equal to 30.0) |
| CCN1C(=O)[C@@H](NC(=O)c2cccc(C(F)(F)F)c2)[C@@H](c2ccc(F)cc2)c2c(CNC(=O)/C=C/CN(C)C)nn(-c3ccccc3)c21 (racemic) [Compound I-220] | + (MS Emax % adduct formation greater than or equal to 0.0 and less than or equal to 30.0) |
| CCN1C(=O)[C@@H](NC(=O)c2cccc(C(F)(F)F)c2)[C@@H](c2ccc(F)cc2)c2c(CNC(=O)/C=C/C(F)(F)F)nn(-c3ccccc3)c21 (racemic) [Compound I-221] | + (MS Emax % adduct formation greater than or equal to 0.0 and less than or equal to 30.0) |
| CC#Cc1nn(-c2ccccc2)c2c1[C@H](c1ccc(F)cc1)[C@H](NC(=O)c1cccc(C(F)(F)F)c1)C(=O)N2CC (racemic) [Compound I-225, rac-N-((4R,5R)-7-ethyl-4-(4-fluorophenyl)-6-oxo-1-phenyl-3-(prop-1-yn-1-yl)-4,5,6,7-tetrahydro-1H-pyrazolo[3,4-b]pyridine-5-yl)-3-(trifluoromethyl)benzamide] | + (MS Emax % adduct formation greater than or equal to 0.0 and less than or equal to 30.0) |
| CCN1C(=O)[C@@H](NC(=O)c2cccc(C(F)(F)F)c2)[C@@H](c2ccc(F)cc2)c2c(CN(C)C(=O)COc3c(F)c(F)cc(F)c3F)nn(-c3ccccc3)c21 (racemic) [Compound I-228] | + (MS Emax % adduct formation greater than or equal to 0.0 and less than or equal to 30.0) |
| CCN1C(=O)[C@@H](NC(=O)c2cccc(C(F)(F)F)c2)[C@@H](c2ccc(F)cc2)c2c(CNC(=O)CCl)nn(-c3ccccc3)c21 (racemic) [Compound I-229] | + (MS Emax % adduct formation greater than or equal to 0.0 and less than or equal to 30.0) |
